Assay results: patent US6933150B1, “Relationship of ABC transport proteins with hematopoietic stem cells and methods of use thereof” (priority 1998, dated 2005)

Key:
[1] = test system: ABC transporter; assay: SP cell analysis of mdr1a/1b knockout bone marrow cells treated with ABC transporter inhibitors; details: treatment before and during Hoechst 33342 staining
Experimental: Hoechst 33342 SP cell assay: Murine bone marrow cells were collected and resuspended at 1×10^6 cells/ml in DMEM plus 10 mM HEPES and 2%, FBS. In a water bath, the cells were allowed to equilibrate at 37° C., followed by addition of 5 μg/ml Hoechst 33342 (Fisher Scientific, Pittsburgh, Pa.) for 90 minutes as previously described [Goodell et al., J. Exp. Med., 183:1797-1806 (1996)]. Cells were then centrifuged at 4° C. and resuspended in ice cold HBSS plus 10 mM HEPES and 2% FBS at 1×10^7 cells/ml. For flow cytometric analysis or sorting, a Becton Dickinson FACS Vantage flow cytometer (Becton Dickinson, San Jose, Calif.) was configured for dual emission wavelength analysis as previously described [Goodell et al., J. Exp. Med., 183:1797-1806 (1996)]. Cells were gated based on forward and side light scatter to exclude debris. […] Cells were analyzed at approximately 5,000 cells/second until data from 1×10^6 cells were collected. The SP cell gate was defined based on normal fresh C57BL/6 bone marrow cells.
Cells were treated with either verapamil or 2-deoxyglucose. Verapamil is a competitive inhibitor of several known ABC transporters including MDR1, whereas 2-deoxyglucose is an inhibitor of ATP synthesis that depletes cellular ATP levels required for ABC transporter function.

[2] = test system: myeloid progenitors; assay: Drug-resistant myeloid progenitor (CFU-C) assay in methylcellulose; format: cell-based, mouse; details: 25 to 50 nM, thymidine phosphorylase-treated methylcellulose
Experimental: Ex vivo culture and expansion of myeloid progenitors: Following transduction (day 0), cells were cultured in the presence of the growth factor combination described above. Cells were resuspended at 1×10^6 cells/ml every 3-6 days for at least 12 days of expansion. Aliquots of cells were removed for CFU-C analysis at various time points.
Retroviral-mediated gene transfer into murine hematopoietic stem cells: BM cells were harvested from C57BL/6 or B6.Ch-1/By (referred to as “HW80”) congenic mouse strains (Jackson Laboratories, Bar Harbor, Me. ) by standard methods. Following isolation, cells were placed into liquid suspension culture in Dulbecco's Modified Eagle's Medium (DMEM) (BioWhittaker, Walkersville, Md.) with 1% penicillin/streptomycin (Gibco/BRL, Grand Island, N.Y.), 15% fetal bovine serum (FBS; Hyclone, Logan Utah), 20 ng/ml murine interleukin (IL)-3®& D Systems, Minneapolis, Minn.), 50 ng/ml human IL-6 (Amgen, Thousand Oaks, Calif.), and 50 ng/ml murine stem cell factor ® & D Systems). The cells were initially plated at 1×10^6 cells/ml in 10 mls of medium. Following pre-stimulation for 48 hours, cells were replated onto confluent monolayers of irradiated ecotropic producer cell lines. The bone marrow cells were plated at the same density used in the pre-stimulation phase and in the same medium with 6 μg/ml polybrene added. […]

Compound	Effect on SP cell phenotype [1]	Killing of non-transduced background cells [2]
O=CC[C@@H](O)[C@H](O)[C@H](O)CO [2-deoxyglucose]	eliminated phenotypically identifiable SP cells	–
COc1cc(NCc2ccc3nc(N)nc(N)c3c2C)cc(OC)c1OC [trimetrexate]	–	completely killed
COc1ccc(CCN(C)CCCC(C#N)(c2ccc(OC)c(OC)c2)C(C)C)cc1OC (stereo not drawn) [verapamil]	eliminated phenotypically identifiable SP cells	–
